# Data taken from US8507411B2, “Neoglycorandomization and digitoxin analogs” (priority 2004, dated 2013).
# Where two headings read alike, the source gives them in different places.
# What was measured:
# Format in all cases: cell-based, human
# Hep3B = test: High-throughput calcein AM cytotoxicity assay, Hep3B; settings: Hep 3B cells, read-out: IC50, Hep 3B
# Excerpt: (§1) Standard errors are depicted with error bars.
# NCI/ADR-RES [1] = test: Cell titer-glo cytotoxicity assay, NCI/ADR-RES
# Excerpt: (§2) FIG. 7 is a graphical summary of the results of the IC50 data from cytotoxicity assays. […] In the assay, live cells are quantified by measuring the luminescent signal resulting from the reaction between cellular ATP and luciferin to form oxyluciferin. The IC50 value for each compound represents at least four replicates of dose-response experiments conducted over six concentrations at two-fold dilutions.
# (§3) The anticancer activities of ten panel analogues (3a-c,e,f and 4a-c,e,f) and digitoxin (1) were assessed using a high-throughput cytotoxicity assay on four human cancer cell lines, (FIG. 7) representing lung, colorectal, and ovarian carcinomas, as well as NCI/ADR-RES, a drug-resistant ovarian carcinoma line (For years, NCI/ADR-RES cells have been misidentified as drug-resistant MCF-7 breast adenocarcinoma cells, but recently this line has been shown definitively to be a drug-resistant line derived from OVCAR-8 ovarian adenocarcinoma cells. Liscovitch, M. et al., Cancer Lett. (2007) 245, 350-352.
# (§4) All cell lines were maintained as previously reported (Langenhan, J. M. et al., Proc. Natl. Acad. Sci. (2005) 102, 12305-12310.) Cells were harvested by trypsinization using 0.25% trypsin and 0.1% EDTA and then counted in a Cellometer Auto T4 cell counter (Nexcelom, inc), before dilution for assay plating. Cell plating, compound handling and assay set up were performed as previously reported^1 except for the cells were plated in 50 μL volumes in 384 well clear bottom, tissue culture plates (Corning-Costar, Inc). Compounds were added from the 384-well compound stock plates at a 1:100 dilution using a Biomek FX liquid handler equipped with a 384 channel head (Beckman Coulter, Inc.). Cell titer-glo reagent (15 μL) (Promega Corporation, Inc.) was added and incubated for 10 min at room temperature with gentle agitation to lyse the cells. Each plate was read for luminescence. […] IC50 values were determined using XLFit 4.0 as previously reported (see Table 7).
# NCI/ADR-RES [2] = test: cells
# How it was run: (§5)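 Compounds were tested at five concentrations in two-fold steps against attached cells and incubated for 72 h. Live cells were then quantified by calcein fluorescence after a 30 min calcein AM loading at 37 °C. Percent inhibition versus log concentration was fitted to a four-parameter logistic model.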
# SK-OV-3 = test: cells
# How it was run: as §5
# SF-268 = test: cells
# How it was run: as §5
# SKOV-3 = test: Cell titer-glo cytotoxicity assay, SKOV-3
# Excerpt: as §2, §3, §4
# A549 = test: High-throughput calcein AM cytotoxicity assay, A549; settings: read-out: IC50, A549
# Excerpt: as §1
# HCT-116 = test: High-throughput calcein AM cytotoxicity assay, HCT-116
# Excerpt: as §1
# [3] = SK-OV-3 cells, read-out: IC50, SK-OV-3
# [4] = SF-268 cells, read-out: IC50, SF-268
# [5] = HCT-116 cells, read-out: IC50, HCT-116
# [6] = NCI/ADR-RES cells, read-out: IC50, NCI/ADR-RES
# [7] = SKOV-3, Cell titer-glo, read-out: IC50
Structure (SMILES),"IC50 (Hep3B; Homo sapiens, Hep3B) [nM]",IC50 (NCI/ADR-RES [1]; Homo sapiens) [nM],"IC50 (NCI/ADR-RES [2]; Homo sapiens, NCI/ADR-RES, read-out: IC50, NCI/ADR-RES) [nM]","IC50 (SK-OV-3; Homo sapiens, SK-OV-3, read-out: IC50, SK-OV-3) [nM]","IC50 (SF-268; Homo sapiens, SF-268, read-out: IC50, SF-268) [nM]","IC50 (SKOV-3; Homo sapiens, SK-OV-3) [nM]","IC50 (A549; Homo sapiens, A549, A549 cells) [nM]","IC50 (HCT-116; Homo sapiens, HCT-116, HCT-116 cells, read-out: IC50, HCT-116) [nM]",IC50 (Hep3B) [nM],"IC50 (NCI/ADR-RES [2]; NCI/ADR-RES, 72 h, calcein AM, read-out: IC50) [nM]",IC50 (SK-OV-3; [3]) [nM],IC50 (SF-268; [4]) [nM],IC50 (A549; A549 cells) [nM],IC50 (HCT-116; [5]) [nM],"IC50 (NCI/ADR-RES [1]; Cell titer-glo, read-out: IC50) [nM]",IC50 (NCI/ADR-RES [2]; [6]) [nM],IC50 (SKOV-3; [7]) [nM],"IC50 (HCT-116; HCT-116, 72 h, calcein AM, read-out: IC50) [nM]"
C[C@H]1O[C@@H](O[C@H]2[C@@H](O)C[C@H](O[C@H]3[C@@H](O)C[C@H](O[C@H]4CC[C@@]5(C)[C@H](CC[C@@H]6[C@@H]5CC[C@]5(C)[C@@H](C7=CC(=O)OC7)CC[C@]65O)C4)O[C@@H]3C)O[C@@H]2C)C[C@H](O)[C@@H]1O [digitoxin],220,69,220,700,1500,> 1000,280,170,,,,,,,,,,
"CON([C@H]1CC[C@@]2(C)[C@H](CC[C@@H]3[C@@H]2CC[C@]2(C)[C@@H](C4=CC(=O)OC4)CC[C@]32O)C1)[C@@H]1O[C@H](CO)[C@@H](O)[C@H](O)[C@@H]1O [27β, D-mannoside]",,,,,,,,,400,100 ± 10,800,2200,630,800,,,,
"CON([C@H]1CC[C@@]2(C)[C@H](CC[C@@H]3[C@@H]2CC[C@]2(C)[C@@H](C4=CC(=O)OC4)CC[C@]32O)C1)[C@H]1OC[C@H](O)[C@H](O)[C@@H]1O [5β, L-riboside]",,,,,,,,,59,,45,230,33,18,45,32,> 1000,18 ± 2
"CON([C@H]1CC[C@@]2(C)[C@H](CC[C@@H]3[C@@H]2CC[C@]2(C)[C@@H](C4=CC(=O)OC4)CC[C@]32O)C1)[C@H]1OC[C@H](O)[C@@H](O)[C@@H]1O [23β, L-xyloside]",,,,,,,,,500,,220,490,79,100,72,138,> 1000,
